Assay results: BindingDB's records for patent US10870641 (Ribon Therapeutics, 2020)

biological target: T1, Protein mono-ADP-ribosyltransferase TIPARP (Homo sapiens, UniProt Q7Z3E1); test: Enzymatic Assay
T1 sequence (Q7Z3E1 whole entry): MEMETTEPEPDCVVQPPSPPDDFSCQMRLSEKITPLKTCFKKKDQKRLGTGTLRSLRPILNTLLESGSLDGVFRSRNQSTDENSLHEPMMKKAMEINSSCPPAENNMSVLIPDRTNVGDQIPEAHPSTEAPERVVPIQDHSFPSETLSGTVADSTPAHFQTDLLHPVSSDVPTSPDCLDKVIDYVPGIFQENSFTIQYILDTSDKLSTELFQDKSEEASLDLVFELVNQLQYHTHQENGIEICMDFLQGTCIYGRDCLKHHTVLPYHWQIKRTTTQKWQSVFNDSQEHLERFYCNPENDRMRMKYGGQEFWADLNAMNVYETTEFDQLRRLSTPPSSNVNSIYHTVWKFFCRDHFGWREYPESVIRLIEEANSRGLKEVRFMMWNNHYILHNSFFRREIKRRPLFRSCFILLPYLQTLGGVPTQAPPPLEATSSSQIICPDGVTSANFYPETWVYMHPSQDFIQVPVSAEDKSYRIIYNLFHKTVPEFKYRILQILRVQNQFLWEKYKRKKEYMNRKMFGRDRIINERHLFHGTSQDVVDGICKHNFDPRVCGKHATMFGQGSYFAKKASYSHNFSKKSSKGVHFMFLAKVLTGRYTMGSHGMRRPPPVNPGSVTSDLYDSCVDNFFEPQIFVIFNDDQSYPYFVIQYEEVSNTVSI
Experimental: Displacement of Probe A, a biotinylated probe binding to the TIPARP active site, was measured using a time-resolved fluorescence energy transfer (TR-FRET) assay. 20 nL of a dose response curve of each test compound was spotted in black 384-well polystyrene proxiplates (Perkin Elmer) using a Mosquito (TTP Labtech). Reactions were performed in a 8 μL volume by adding […] of TIPARP and Probe A in assay buffer (20 mM HEPES pH=8, 100 mM NaCl, 0.1% bovine serum albumin, 2 mM DTT and 0.002% Tween20), incubating with test compound at 25° C. for 30 min, then adding 2 μL of ULight-anti 6×His and LANCE Eu-W1024 labeled streptavidin (Perkin Elmer). The final concentrations of TIPARP and Probe A were 6 nM and 2 nM, respectively.

Question: For `N#Cc1cnc(N2CCN(C(=O)c3cc(OC[C@@H]4c5ccccc5CN4c4cn[nH]c(=O)c4C(F)(F)F)ccn3)CC2)nc1` [US10870641, Example 64B], which IC50 is on record?
Answer: > 1000 nM

Question: `C[C@@H](CC(=O)N1CCN(c2ccc(C#N)cn2)CC1)OCCOc1cn[nH]c(=O)c1C(F)(F)F` [US10870641, Example 538A] was tested. Which IC50 did it give?
Answer: in the range around 550 nM

Question: `N#Cc1ccc(N2CCN(C(=O)/C=C/COC[C@H]3CCCN3c3cn[nH]c(=O)c3C(F)(F)F)CC2)nc1` [US10870641, Example 96B] was tested. Which IC50 did it give?
Answer: < 100 nM
